Each structure is given as a SMILES string.

This is an account of results in patent US10905657B2, “Solid dispersions of Coenzyme Q10” (Indena S.P.A., priority 2015, dated 2021).

The series is described as follows: Pharmacokinetic study in rats after single oral dose. To be noted: male, Sprague-Dawley, rat, in vivo, 50 mg/kg, intragastric gavage, single dose 50 mg Coenzyme Q10/Kg, suspended in 1% carboxymethyl cellulose, plasma. How it is done:
Pharmacokinetic parameters (Tmax, Cmax, absolute bioavailability) were determined in rats after the oral administration of a single dose of Coenzyme Q10 as crystalline powder and as solid dispersion with phospholipids.
Male Sprague-Dawley rats, weighting 300-350 g were used for the pharmacokinetic experiment. Rats were fasted 16 hours before administration with free access to water.
Coenzyme Q10 as crystalline powder and as solid dispersion with phospholipids were suspended in 1% carboxymethyl cellulose water suspension and administered by intragastric gavage as a single dose of 50 mg of Coenzyme Q10/Kg.
Blood samples were collected from tail vein after 0.5-1.0-2.0-4.0-8.0-12.0 and 24 hours after administration.
Plasma was obtained from blood samples by centrifugation at 5.000×g for 15 minutes and kept frozen (−20° C.) until analysis. After protein sedimentation, Coenzyme Q10 was extracted by plasma samples with n-hexane; the extraction step with hexane was repeated for three times. The hexane phases, separated by centrifugation, were collected and the solvent was removed by evaporation under nitrogen. The residue was dissolved in 2-propanol for HPLC/MS analysis at 275 nm, using internal standard method for Coenzyme Q10 quantification.
The following pharmacokinetic parameters were calculated: […]

With `COC1=C(OC)C(=O)C(C/C=C(\C)CC/C=C(\C)CC/C=C(\C)CC/C=C(\C)CC/C=C(\C)CC/C=C(\C)CC/C=C(\C)CC/C=C(\C)CC/C=C(\C)CCC=C(C)C)=C(C)C1=O` [Crystalline Coenzyme Q10, Coenzyme Q10], the peak concentration (Cmax) came out at 230 ng/mL and the Tmax worked out at 3.8 h. Further, the AUC(0-t) (0-24 hours) worked out at 4100 ng·h/mL.

In general, Cmax refers to the maximum level reached in the sampled fluid or tissue. One may read the Tmax as the time from dosing to the highest level. As usually defined, the AUC(0-t) is exposure summed from dosing to a finite time, without extrapolation to infinity. A lower AUC(0-t) goes with less exposure.
